According to patent US8232407B2, “Nitrogenous heterocyclic compounds with insecticidal activity, and the preparation and use thereof” (East China University of Science and Technology, priority 2008, dated 2012):

Experiments:
Format in all cases: in vivo
Aphis craccivoral = assay: Insecticidal activities to aphids, immersion method; conditions: for Aphis craccivoral Mortality (%) 500 ppm: in vivo
Procedure: (1): Insecticidal Activities to Aphids
Aphis (Aphis craccivoral), which belongs to Homoptera and has a piercing-sucking mouthpart, is a common insect for agricultural plant. Aphis craccivoral was tested by immersion method.
Procedure: exactly weighed various samples were independently added to N,N-dimethylformamide to form 10 g/L stock solutions. The stock solutions were diluted with 0.2 mL/L aqueous Triton X-100 solution to a concentration of 500 ppm. After stably sucking on bean sprout, the wingless adult aphis together with bean sprout were dipped into 500 ppm dilution, taken out after 5 seconds, and the excess dilution was sucked off with bibulous paper. The treated wingless adult aphis was incubated in clean vessel at a constant temperature of 23° C. Each concentration was repeated for 3 times and the control group was treated with 0.2mL/L aqueous Triton X-100 solution. The number of killed aphis was counted after 24 hours and the mortality was to calculated according to the following formula:
(§1) Mortality (%)=(the number of the survival aphis in control group−the number of the survival aphis in the treatment group)/the number of the survival aphis in control group×100%

Plutella xylostella = assay: Insecticidal activities to diamondback moth, feeding dipped leaves; conditions: for Plutella xylostella Mortality (%) 500 ppm: in vivo
Procedure: as §1
(4): Insecticidal Activities to Diamondback Moth
Diamondback moth (Plutella xylostella) was tested by the way of feeding dippedleaves. Fresh cabbage leaves were immersed in above mentioned solution for 3 seconds, dried at room temperature, and fed to the tested insects. Each treatment was tested with 10 insects and repeated for 3 tumblers (3 times), while water was used as control. The number of killed insects was counted after 24 hours to calculate the mortality according to the above mentioned formula.

[1] = tested on: Pseudaletia separate Walker; assay: Insecticidal activities to armyworm, leaf dipping and feeding
Procedure: as §1
(3): Insecticidal Activities to Armyworm
Armyworm (Pseudaletia separate Walker) was tested by the way of leaf dipping and feeding. The test compound was exactly formulated with acetone into solutions having concentrations of 500, 250, 100, 50, 25, 12.5, 6.25, 3.13 and 1.57 ppm, respectively. Aqueous acetone solution was used as control. Fresh maize leaves were immersed in the solution for 3 seconds, dried at room temperature, and fed to the tested insects. Each treatment was tested with 10 insects and repeated for 3 tumblers (3 times). The number of killed insects was counted after 24 hours to calculate the mortality according to the above mentioned formula.

Nilaparvata lugens = assay: Insecticidal activities to plant hopper, spraying method; conditions: for Nilaparvata lugens Mortality (%) 500 ppm: in vivo
Procedure: as §1
(2): Insecticidal Activities to Plant hopper
Plant hopper (Nilaparvata lugens), which belongs to Homoptera and has a piercing-sucking mouthpart, is a common insect for agricultural plant. Nilaparvata lugens was tested by spraying method.
Procedure: the test compound was exactly formulated with acetone to form solutions having concentrations of 500, 250, 100, 50, 25, 12.5, 6.25, 3.13, 1.57 and 0.79 ppm, respectively. Aqueous acetone solution was used as control. Each treatment was repeated for 3 tumblers (3 times). Two ml of solution was sprayed uniformly to each tumbler with a mini manual sprayer. 10 insects were introduced to every basin 6 hours before spraying. Three series of experiments were conducted. The number of killed insects was counted after 24 hours to calculate the mortality according to the above mentioned formula.

C[N+]1=C(C(=Cc2ccc(Br)o2)[N+](=O)[O-])N(Cc2cnc(Cl)s2)CC1.[Cl-] [Compound 279]
Aphis craccivoral Mortality (%) 500 ppm (Aphis craccivoral): 100% | Plutella xylostella Mortality (%) 500 ppm (Plutella xylostella): 100% | Pseudaletia separate Walker Mortality (%) 500 ppm ([1]; in vivo): 100% | Nilaparvata lugens Mortality (%) 500 ppm (Nilaparvata lugens): 100%

C[N+]1=C(C(=Cc2ccc([N+](=O)[O-])s2)[N+](=O)[O-])N(Cc2ccc(Cl)nc2)CC1.[Cl-] [Compound 261]
Aphis craccivoral Mortality (%) 500 ppm (Aphis craccivoral): 100% | Plutella xylostella Mortality (%) 500 ppm (Plutella xylostella): 100% | Pseudaletia separate Walker Mortality (%) 500 ppm ([1]; in vivo): 100% | Nilaparvata lugens Mortality (%) 500 ppm (Nilaparvata lugens): 100%

CC[N+]1=C(C(=Cc2ccsc2)[N+](=O)[O-])N(Cc2ccc(Cl)nc2)CC1.[Cl-] [Compound 292]
Aphis craccivoral Mortality (%) 500 ppm (Aphis craccivoral): 100% | Plutella xylostella Mortality (%) 500 ppm (Plutella xylostella): 100% | Pseudaletia separate Walker Mortality (%) 500 ppm ([1]; in vivo): 100% | Nilaparvata lugens Mortality (%) 500 ppm (Nilaparvata lugens): 100%

C[N+]1=C(C(=Cc2cc(Cl)co2)[N+](=O)[O-])N(Cc2ccc(Cl)nc2)CC1.[Cl-] [Compound 249]
Aphis craccivoral Mortality (%) 500 ppm (Aphis craccivoral): 100% | Plutella xylostella Mortality (%) 500 ppm (Plutella xylostella): 100% | Pseudaletia separate Walker Mortality (%) 500 ppm ([1]; in vivo): 100% | Nilaparvata lugens Mortality (%) 500 ppm (Nilaparvata lugens): 100%

O=[N+]([O-])/C(=C/c1ccco1)C1=NCCN1CC1CCOC1 (stereo not shown) [Compound 91, 2-(2-(furan-2-yl)-1-nitrovinyl)-1-((tetrahydrofuran-3-yl)methyl)-4,5-dihydro-1H-imidazole]
mortality at 500 ppm (Aphis craccivoral; Aphis, read-out: Aphis craccivoral Mortality (%) 500 ppm): 87% | mortality at 500 ppm (Plutella xylostella; Plutella xylostella, 24 h, read-out: Plutella xylostella Mortality (%) 500 ppm): 100% | Pseudaletia separate Walker Mortality (%) 500 ppm ([1]; 500 ppm, leaf dipping and feeding, counted after 24 hours): 98% | mortality at 500 ppm (Nilaparvata lugens; Nilaparvata lugens, 24 h, read-out: Nilaparvata lugens Mortality (%) 500 ppm): 100%

C[N+]1=C(C(=Cc2ccsc2)[N+](=O)[O-])N(Cc2cnc(Cl)s2)CC1.[Cl-] [Compound 281]
Aphis craccivoral Mortality (%) 500 ppm (Aphis craccivoral): 100% | Plutella xylostella Mortality (%) 500 ppm (Plutella xylostella): 100% | Pseudaletia separate Walker Mortality (%) 500 ppm ([1]; in vivo): 100% | Nilaparvata lugens Mortality (%) 500 ppm (Nilaparvata lugens): 100%

Cc1ccc(C=C(C2=[N+](C)CCN2Cc2ccc(Cl)nc2)[N+](=O)[O-])o1.[Cl-] [Compound 255]
Aphis craccivoral Mortality (%) 500 ppm (Aphis craccivoral): 100% | Plutella xylostella Mortality (%) 500 ppm (Plutella xylostella): 100% | Pseudaletia separate Walker Mortality (%) 500 ppm ([1]; in vivo): 100% | Nilaparvata lugens Mortality (%) 500 ppm (Nilaparvata lugens): 100%

CC(=C(C1=NCCN1Cc1ccc(Cl)nc1)[N+](=O)[O-])c1ccc([N+](=O)[O-])s1 [Compound 117]
Aphis craccivoral Mortality (%) 500 ppm (Aphis craccivoral): 83% | Plutella xylostella Mortality (%) 500 ppm (Plutella xylostella): 86% | Pseudaletia separate Walker Mortality (%) 500 ppm ([1]; in vivo): 77% | Nilaparvata lugens Mortality (%) 500 ppm (Nilaparvata lugens): 88%

O=[N+]([O-])C(=Cc1cc(Br)co1)C1=NCCN1Cc1ccccc1 [Compound 107]
Aphis craccivoral Mortality (%) 500 ppm (Aphis craccivoral): 82% | Plutella xylostella Mortality (%) 500 ppm (Plutella xylostella): 85% | Pseudaletia separate Walker Mortality (%) 500 ppm ([1]; in vivo): 96% | Nilaparvata lugens Mortality (%) 500 ppm (Nilaparvata lugens): 92%

C[N+]1=C(C(=Cc2ccoc2)[N+](=O)[O-])N(Cc2ccc(Cl)nc2)CC1.[Cl-] [Compound 245]
Aphis craccivoral Mortality (%) 500 ppm (Aphis craccivoral): 100% | Plutella xylostella Mortality (%) 500 ppm (Plutella xylostella): 100% | Pseudaletia separate Walker Mortality (%) 500 ppm ([1]; in vivo): 100% | Nilaparvata lugens Mortality (%) 500 ppm (Nilaparvata lugens): 100%

O=[N+]([O-])C(=Cc1cc(Cl)cs1)C1=NCCN1Cc1ccc(Cl)nc1 [Compound 21]
Aphis craccivoral Mortality (%) 500 ppm (Aphis craccivoral): 100% | Plutella xylostella Mortality (%) 500 ppm (Plutella xylostella): 100% | Pseudaletia separate Walker Mortality (%) 500 ppm ([1]; in vivo): 100% | Nilaparvata lugens Mortality (%) 500 ppm (Nilaparvata lugens): 100%

O=[N+]([O-])C(=Cc1cc(Br)c(Br)o1)C1=NCCN1Cc1cnc(Cl)s1 [Compound 77]
Aphis craccivoral Mortality (%) 500 ppm (Aphis craccivoral): 100% | Plutella xylostella Mortality (%) 500 ppm (Plutella xylostella): 100% | Pseudaletia separate Walker Mortality (%) 500 ppm ([1]; in vivo): 100% | Nilaparvata lugens Mortality (%) 500 ppm (Nilaparvata lugens): 100%

O=[N+]([O-])C(=Cc1ccc(Br)s1)C1=NCCN1Cc1cnc(Cl)s1 [Compound 87]
Aphis craccivoral Mortality (%) 500 ppm (Aphis craccivoral): 100% | Plutella xylostella Mortality (%) 500 ppm (Plutella xylostella): 100% | Pseudaletia separate Walker Mortality (%) 500 ppm ([1]; in vivo): 100% | Nilaparvata lugens Mortality (%) 500 ppm (Nilaparvata lugens): 100%

O=[N+]([O-])C(=Cc1ccc(Cl)o1)C1=NCCN1Cc1ccc(Cl)nc1 [Compound 4]
Aphis craccivoral Mortality (%) 500 ppm (Aphis craccivoral): 100% | Plutella xylostella Mortality (%) 500 ppm (Plutella xylostella): 100% | Pseudaletia separate Walker Mortality (%) 500 ppm ([1]; in vivo): 100% | Nilaparvata lugens Mortality (%) 500 ppm (Nilaparvata lugens): 100%

CC(=C(C1=NCCN1C(C)c1ccc(Cl)nc1)[N+](=O)[O-])c1cccs1 (racemic) [Compound 138]
Aphis craccivoral Mortality (%) 500 ppm (Aphis craccivoral): 100% | Plutella xylostella Mortality (%) 500 ppm (Plutella xylostella): 100% | Pseudaletia separate Walker Mortality (%) 500 ppm ([1]; in vivo): 100% | Nilaparvata lugens Mortality (%) 500 ppm (Nilaparvata lugens): 100%

O=[N+]([O-])C(=Cc1cccs1)C1=NCCN1Cc1cnc(Cl)s1 [Compound 83]
Aphis craccivoral Mortality (%) 500 ppm (Aphis craccivoral): 100% | Plutella xylostella Mortality (%) 500 ppm (Plutella xylostella): 100% | Pseudaletia separate Walker Mortality (%) 500 ppm ([1]; in vivo): 100% | Nilaparvata lugens Mortality (%) 500 ppm (Nilaparvata lugens): 100%

O=[N+]([O-])C(=Cc1sc(Br)cc1Br)C1=NCCN1Cc1ccc(Cl)nc1 [Compound 26]
Aphis craccivoral Mortality (%) 500 ppm (Aphis craccivoral): 100% | Plutella xylostella Mortality (%) 500 ppm (Plutella xylostella): 100% | Pseudaletia separate Walker Mortality (%) 500 ppm ([1]; in vivo): 100% | Nilaparvata lugens Mortality (%) 500 ppm (Nilaparvata lugens): 100%

CC[N+]1=C(/C(=C\c2ccc[nH]2)[N+](=O)[O-])N(Cc2ccc(Cl)nc2)CC1.[Cl-] [Compound 295]
Aphis craccivoral Mortality (%) 500 ppm (Aphis craccivoral): 100% | Plutella xylostella Mortality (%) 500 ppm (Plutella xylostella): 100% | Pseudaletia separate Walker Mortality (%) 500 ppm ([1]; in vivo): 100% | Nilaparvata lugens Mortality (%) 500 ppm (Nilaparvata lugens): 100%

O=[N+]([O-])C(=Cc1cc(Cl)co1)C1=NCCN1Cc1ccc(Cl)nc1 [Compound 6]
Aphis craccivoral Mortality (%) 500 ppm (Aphis craccivoral): 100% | Plutella xylostella Mortality (%) 500 ppm (Plutella xylostella): 100% | Pseudaletia separate Walker Mortality (%) 500 ppm ([1]; in vivo): 100% | Nilaparvata lugens Mortality (%) 500 ppm (Nilaparvata lugens): 100%

O=[N+]([O-])C(=Cc1ccc(Br)o1)C1=NCCCN1Cc1ccc(Cl)nc1 [Compound 50]
Aphis craccivoral Mortality (%) 500 ppm (Aphis craccivoral): 100% | Plutella xylostella Mortality (%) 500 ppm (Plutella xylostella): 100% | Pseudaletia separate Walker Mortality (%) 500 ppm ([1]; in vivo): 100% | Nilaparvata lugens Mortality (%) 500 ppm (Nilaparvata lugens): 100%

C[N+]1=C(C(=Cc2cc(Br)co2)[N+](=O)[O-])N(Cc2ccc(Cl)nc2)CC1.[Cl-] [Compound 250]
Aphis craccivoral Mortality (%) 500 ppm (Aphis craccivoral): 100% | Plutella xylostella Mortality (%) 500 ppm (Plutella xylostella): 100% | Pseudaletia separate Walker Mortality (%) 500 ppm ([1]; in vivo): 100% | Nilaparvata lugens Mortality (%) 500 ppm (Nilaparvata lugens): 100%

CC(=C(C1=NCCN1Cc1ccc(Cl)nc1)[N+](=O)[O-])c1ccc(C)o1 [Compound 114]
Aphis craccivoral Mortality (%) 500 ppm (Aphis craccivoral): 92% | Plutella xylostella Mortality (%) 500 ppm (Plutella xylostella): 30% | Pseudaletia separate Walker Mortality (%) 500 ppm ([1]; in vivo): 10% | Nilaparvata lugens Mortality (%) 500 ppm (Nilaparvata lugens): 100%

CC(=C(C1=NCCN1Cc1ccc(Cl)nc1)[N+](=O)[O-])c1cc(Cl)cs1 [Compound 120]
Aphis craccivoral Mortality (%) 500 ppm (Aphis craccivoral): 52% | Plutella xylostella Mortality (%) 500 ppm (Plutella xylostella): 68% | Pseudaletia separate Walker Mortality (%) 500 ppm ([1]; in vivo): 59% | Nilaparvata lugens Mortality (%) 500 ppm (Nilaparvata lugens): 86%

C[N+]1=C(C(=Cc2ccc([N+](=O)[O-])o2)[N+](=O)[O-])N(Cc2ccc(Cl)nc2)CC1.[Cl-] [Compound 246]
Aphis craccivoral Mortality (%) 500 ppm (Aphis craccivoral): 100% | Plutella xylostella Mortality (%) 500 ppm (Plutella xylostella): 100% | Pseudaletia separate Walker Mortality (%) 500 ppm ([1]; in vivo): 100% | Nilaparvata lugens Mortality (%) 500 ppm (Nilaparvata lugens): 100%

CC[N+]1=C(C(=Cc2cccs2)[N+](=O)[O-])N(Cc2ccc(Cl)nc2)CC1.[Cl-] [Compound 291]
Aphis craccivoral Mortality (%) 500 ppm (Aphis craccivoral): 100% | Plutella xylostella Mortality (%) 500 ppm (Plutella xylostella): 100% | Pseudaletia separate Walker Mortality (%) 500 ppm ([1]; in vivo): 100% | Nilaparvata lugens Mortality (%) 500 ppm (Nilaparvata lugens): 100%

C[N+]1=C(C(=Cc2ccc(Br)s2)[N+](=O)[O-])N(Cc2ccc(Cl)nc2)CC1.[Cl-] [Compound 263]
Aphis craccivoral Mortality (%) 500 ppm (Aphis craccivoral): 100% | Plutella xylostella Mortality (%) 500 ppm (Plutella xylostella): 100% | Pseudaletia separate Walker Mortality (%) 500 ppm ([1]; in vivo): 100% | Nilaparvata lugens Mortality (%) 500 ppm (Nilaparvata lugens): 100%

O=[N+]([O-])C(=Cc1cc(Br)co1)C1=NCCN1Cc1cnc(Cl)s1 [Compound 74]
Aphis craccivoral Mortality (%) 500 ppm (Aphis craccivoral): 100% | Plutella xylostella Mortality (%) 500 ppm (Plutella xylostella): 100% | Pseudaletia separate Walker Mortality (%) 500 ppm ([1]; in vivo): 100% | Nilaparvata lugens Mortality (%) 500 ppm (Nilaparvata lugens): 100%

CC(=C(C1=NCCN1C(C)c1ccc(Cl)nc1)[N+](=O)[O-])c1ccoc1 (racemic) [Compound 134]
Aphis craccivoral Mortality (%) 500 ppm (Aphis craccivoral): 38% | Plutella xylostella Mortality (%) 500 ppm (Plutella xylostella): 46% | Pseudaletia separate Walker Mortality (%) 500 ppm ([1]; in vivo): 52% | Nilaparvata lugens Mortality (%) 500 ppm (Nilaparvata lugens): 51%
